± gives the expanded uncertainty stated by the source.
Assay: mn = molality of the nth substance listed, in mol/kg
Conditions: 75 kPa, Liquid, Buoyancy - hydrostatic balance with magnetic suspension - one sinker

## CCCC(N)=O [butanamide] + O
275.66 K, m1 = 0.1003
  mass density: 1000.06 ± 0.32 kg/m3
275.66 K, m1 = 0.1971
  mass density: 1000.2 ± 0.32 kg/m3
275.66 K, m1 = 0.301
  mass density: 1000.37 ± 0.32 kg/m3
275.66 K, m1 = 0.4013
  mass density: 1000.56 ± 0.32 kg/m3
275.66 K, m1 = 0.4955
  mass density: 1000.75 ± 0.32 kg/m3
275.66 K, m1 = 0.6013
  mass density: 1000.97 ± 0.32 kg/m3
275.66 K, m1 = 0.695
  mass density: 1001.2 ± 0.33 kg/m3
275.66 K, m1 = 0.8012
  mass density: 1001.46 ± 0.33 kg/m3
276.14 K, m1 = 0.1021
  mass density: 1000.06 ± 0.32 kg/m3
276.14 K, m1 = 0.1961
  mass density: 1000.2 ± 0.32 kg/m3
276.14 K, m1 = 0.2967
  mass density: 1000.37 ± 0.32 kg/m3
276.14 K, m1 = 0.4955
  mass density: 1000.75 ± 0.32 kg/m3
276.14 K, m1 = 0.6013
  mass density: 1000.96 ± 0.32 kg/m3
276.14 K, m1 = 0.6982
  mass density: 1001.18 ± 0.33 kg/m3
276.14 K, m1 = 0.8012
  mass density: 1001.42 ± 0.33 kg/m3
276.14 K, m1 = 0.9855
  mass density: 1001.87 ± 0.33 kg/m3
276.61 K, m1 = 0.1009
  mass density: 1000.05 ± 0.32 kg/m3
276.61 K, m1 = 0.1973
  mass density: 1000.18 ± 0.32 kg/m3
276.61 K, m1 = 0.2967
  mass density: 1000.33 ± 0.32 kg/m3
276.61 K, m1 = 0.4013
  mass density: 1000.51 ± 0.32 kg/m3
276.61 K, m1 = 0.5977
  mass density: 1000.89 ± 0.32 kg/m3
276.61 K, m1 = 0.7003
  mass density: 1001.11 ± 0.33 kg/m3
276.61 K, m1 = 0.8012
  mass density: 1001.35 ± 0.33 kg/m3
276.61 K, m1 = 0.9976
  mass density: 1001.83 ± 0.33 kg/m3
277.15 K, m1 = 0.1021
  mass density: 1000.09 ± 0.32 kg/m3
277.15 K, m1 = 0.1961
  mass density: 1000.21 ± 0.32 kg/m3
277.15 K, m1 = 0.2967
  mass density: 1000.35 ± 0.32 kg/m3
277.15 K, m1 = 0.4955
  mass density: 1000.69 ± 0.32 kg/m3
277.15 K, m1 = 0.6013
  mass density: 1000.9 ± 0.32 kg/m3
277.15 K, m1 = 0.6982
  mass density: 1001.13 ± 0.33 kg/m3
277.15 K, m1 = 0.8012
  mass density: 1001.4 ± 0.33 kg/m3
277.15 K, m1 = 0.9855
  mass density: 1001.94 ± 0.33 kg/m3
277.61 K, m1 = 0.1009
  mass density: 1000.08 ± 0.32 kg/m3
277.61 K, m1 = 0.1973
  mass density: 1000.21 ± 0.32 kg/m3
277.61 K, m1 = 0.2967
  mass density: 1000.36 ± 0.32 kg/m3
277.61 K, m1 = 0.4013
  mass density: 1000.53 ± 0.32 kg/m3
277.61 K, m1 = 0.5977
  mass density: 1000.89 ± 0.32 kg/m3
277.61 K, m1 = 0.7003
  mass density: 1001.1 ± 0.33 kg/m3
277.61 K, m1 = 0.8024
  mass density: 1001.32 ± 0.33 kg/m3
277.61 K, m1 = 0.9976
  mass density: 1001.77 ± 0.33 kg/m3
278.12 K, m1 = 0.1076
  mass density: 1000.07 ± 0.32 kg/m3
278.12 K, m1 = 0.1971
  mass density: 1000.19 ± 0.32 kg/m3
278.12 K, m1 = 0.3283
  mass density: 1000.38 ± 0.32 kg/m3
278.12 K, m1 = 0.4191
  mass density: 1000.51 ± 0.32 kg/m3
278.12 K, m1 = 0.5074
  mass density: 1000.65 ± 0.32 kg/m3
278.12 K, m1 = 0.6233
  mass density: 1000.85 ± 0.32 kg/m3
278.12 K, m1 = 0.7379
  mass density: 1001.04 ± 0.33 kg/m3
278.12 K, m1 = 0.8761
  mass density: 1001.28 ± 0.33 kg/m3
278.68 K, m1 = 0.1003
  mass density: 1000.05 ± 0.32 kg/m3
278.68 K, m1 = 0.1971
  mass density: 1000.17 ± 0.32 kg/m3
278.68 K, m1 = 0.301
  mass density: 1000.31 ± 0.32 kg/m3
278.68 K, m1 = 0.4013
  mass density: 1000.46 ± 0.32 kg/m3
278.68 K, m1 = 0.4955
  mass density: 1000.62 ± 0.32 kg/m3
278.68 K, m1 = 0.6013
  mass density: 1000.81 ± 0.32 kg/m3
278.68 K, m1 = 0.695
  mass density: 1001 ± 0.33 kg/m3
278.68 K, m1 = 0.8012
  mass density: 1001.23 ± 0.33 kg/m3

Source: the NIST ThermoML archive (doi:10.1016/j.jct.2016.10.024)
